# Measurements: patent US12077503B2, “Substituted cyclic amides and their use as herbicides” (FMC CORPORATION, priority 2015, dated 2024)
# Legend:
# Test in all cases: Test C postemergence
# Format in all cases: in vivo
# Conditions in all cases: scale 0 to 100, 0 no effect, 100 complete control
# Kochia (Kochia scoparia) = tested on: Kochia (Kochia scoparia)
# Source text: (§1) Seeds of plant species selected from blackgrass (Alopecurus myosuroides), ryegrass, Italian (Italian ryegrass, Lolium multiflorum), wheat (winter wheat, Triticum aestivum), Galium (catchweed bedstraw, Galium aparine), corn (Zea mays), crabgrass, large (large crabgrass, Digitaria sanguinalis), foxtail, giant (giant foxtail, Setaria faberii), johnsongrass (Sorghum halepense), lambsquarters (Chenopodium album), morningglory (Ipomoea coccinea), nutsedge, yellow (yellow nutsedge, Cyperus esculentus), pigweed (Amaranthus retroflexus), ragweed (common ragweed, Ambrosia elatior), soybean (Glycine max), barnyardgrass (Echinochloa crus-galli), oilseed rape (Brassica napus), waterhemp (common waterhemp, Amaranthus rudis) and velvetleaf (Abutilon theophrasti) were planted into a blend of loam soil and sand and treated preemergence with test chemicals formulated in a non-phytotoxic solvent mixture which included a surfactant.
# (§2) At the same time, plants selected from these crop and weed species and also Kochia (Kochia scoparia), oat, wild (wild oat, Avena fatua), and chickweed (common chickweed, Stellaria media) were planted in pots containing Sunshine Redi-Earth® planting medium comprising spaghnum peat moss, vermiculite, starter nutrients and dolomitic limestone and treated with postemergence applications of test chemicals formulated in the same manner. Plants ranged in height from 2 to 18 cm (1- to 4-leaf stage) for postemergence treatments. Treated plants and controls were maintained in a greenhouse for 13 to 15 d, after which time all species were compared to controls and visually evaluated. Plant response ratings, summarized in Table C, are based on a scale of 0 to 100 where 0 is no effect and 100 is complete control. A dash (-) response means no test result.
# [1] = tested on: chickweed (common chickweed, Stellaria media)
# Source text: as §1, §2
# corn (Zea mays) = tested on: corn (Zea mays)
# Source text: as §1, §2
# [2] = tested on: foxtail, giant (giant foxtail, Setaria faberii)
# Source text: as §1, §2
# [3] = tested on: lambsquarters (Chenopodium album)
# Source text: as §1, §2
# [4] = tested on: morningglory (Ipomoea coccinea)
# Source text: as §1, §2
# [5] = tested on: nutsedge, yellow (yellow nutsedge, Cyperus esculentus)
# Source text: as §1, §2
# [6] = tested on: oilseed rape (Brassica napus)
# Source text: as §1, §2
# [7] = tested on: ragweed (common ragweed, Ambrosia elatior)
# Source text: as §1, §2
# [8] = tested on: ryegrass, Italian (Italian ryegrass, Lolium multiflorum)
# Source text: as §1, §2
# soybean (Glycine max) = tested on: soybean (Glycine max)
# Source text: as §1, §2
smiles,measurement,setting,value
O=C1NCC(c2ccc3c(c2)OC(F)(F)O3)C1C(=O)Nc1cccc(F)c1F (stereo not shown) [Compound 635],"Plant response rating, Kochia",Kochia (Kochia scoparia); 31 g ai/ha,40
same,"Plant response rating, Kochia",Kochia (Kochia scoparia); 62 g ai/ha,20
same,"Plant response rating, Kochia",Kochia (Kochia scoparia); 125 g ai/ha,50
same,"Plant response rating, Kochia",Kochia (Kochia scoparia); 250 g ai/ha,60
same,"Plant response rating, Chickweed",[1]; 31 g ai/ha,80
same,"Plant response rating, Chickweed",[1]; 62 g ai/ha,85
same,"Plant response rating, Chickweed",[1]; 125 g ai/ha,85
same,"Plant response rating, Chickweed",[1]; 250 g ai/ha,90
same,"Plant response rating, Corn",corn (Zea mays); 31 g ai/ha,0
same,"Plant response rating, Corn",corn (Zea mays); 62 g ai/ha,0
same,"Plant response rating, Corn",corn (Zea mays); 125 g ai/ha,5
same,"Plant response rating, Corn",corn (Zea mays); 250 g ai/ha,40
same,"Plant response rating, Foxtail, Giant",[2]; 31 g ai/ha,15
same,"Plant response rating, Foxtail, Giant",[2]; 62 g ai/ha,30
same,"Plant response rating, Foxtail, Giant",[2]; 125 g ai/ha,50
same,"Plant response rating, Foxtail, Giant",[2]; 250 g ai/ha,60
same,"Plant response rating, Lambsquarters",[3]; 31 g ai/ha,75
same,"Plant response rating, Lambsquarters",[3]; 62 g ai/ha,80
same,"Plant response rating, Lambsquarters",[3]; 125 g ai/ha,75
same,"Plant response rating, Lambsquarters",[3]; 250 g ai/ha,85
same,"Plant response rating, Morningglory",[4]; 31 g ai/ha,25
same,"Plant response rating, Morningglory",[4]; 62 g ai/ha,40
same,"Plant response rating, Morningglory",[4]; 125 g ai/ha,45
same,"Plant response rating, Morningglory",[4]; 250 g ai/ha,45
same,"Plant response rating, Nutsedge, Yellow",[5]; 31 g ai/ha,0
same,"Plant response rating, Nutsedge, Yellow",[5]; 62 g ai/ha,0
same,"Plant response rating, Nutsedge, Yellow",[5]; 125 g ai/ha,0
same,"Plant response rating, Nutsedge, Yellow",[5]; 250 g ai/ha,0
same,"Plant response rating, Oilseed Rape",[6]; 31 g ai/ha,50
same,"Plant response rating, Oilseed Rape",[6]; 62 g ai/ha,45
same,"Plant response rating, Oilseed Rape",[6]; 125 g ai/ha,10
same,"Plant response rating, Oilseed Rape",[6]; 250 g ai/ha,80
same,"Plant response rating, Ragweed",[7]; 31 g ai/ha,25
same,"Plant response rating, Ragweed",[7]; 62 g ai/ha,60
same,"Plant response rating, Ragweed",[7]; 125 g ai/ha,70
same,"Plant response rating, Ragweed",[7]; 250 g ai/ha,80
same,"Plant response rating, Ryegrass, Italian",[8]; 31 g ai/ha,0
same,"Plant response rating, Ryegrass, Italian",[8]; 62 g ai/ha,0
same,"Plant response rating, Ryegrass, Italian",[8]; 125 g ai/ha,15
same,"Plant response rating, Ryegrass, Italian",[8]; 250 g ai/ha,20
same,"Plant response rating, Soybean",soybean (Glycine max); 31 g ai/ha,0
same,"Plant response rating, Soybean",soybean (Glycine max); 62 g ai/ha,0
same,"Plant response rating, Soybean",soybean (Glycine max); 125 g ai/ha,5
same,"Plant response rating, Soybean",soybean (Glycine max); 250 g ai/ha,10
CN1CC(c2ccc(F)c(F)c2)C(C(=O)Nc2ccccc2C(F)(F)F)C1=O (stereo not shown) [Compound 641],"Plant response rating, Kochia",Kochia (Kochia scoparia); 31 g ai/ha,0
same,"Plant response rating, Kochia",Kochia (Kochia scoparia); 62 g ai/ha,0
same,"Plant response rating, Kochia",Kochia (Kochia scoparia); 125 g ai/ha,0
same,"Plant response rating, Kochia",Kochia (Kochia scoparia); 250 g ai/ha,40
same,"Plant response rating, Chickweed",[1]; 31 g ai/ha,0
same,"Plant response rating, Chickweed",[1]; 62 g ai/ha,0
same,"Plant response rating, Chickweed",[1]; 125 g ai/ha,50
same,"Plant response rating, Chickweed",[1]; 250 g ai/ha,55
same,"Plant response rating, Corn",corn (Zea mays); 31 g ai/ha,0
same,"Plant response rating, Corn",corn (Zea mays); 62 g ai/ha,0
same,"Plant response rating, Corn",corn (Zea mays); 125 g ai/ha,0
same,"Plant response rating, Corn",corn (Zea mays); 250 g ai/ha,10
same,"Plant response rating, Foxtail, Giant",[2]; 31 g ai/ha,0
same,"Plant response rating, Foxtail, Giant",[2]; 62 g ai/ha,10
same,"Plant response rating, Foxtail, Giant",[2]; 125 g ai/ha,65
same,"Plant response rating, Foxtail, Giant",[2]; 250 g ai/ha,80
same,"Plant response rating, Lambsquarters",[3]; 31 g ai/ha,5
same,"Plant response rating, Lambsquarters",[3]; 62 g ai/ha,15
same,"Plant response rating, Lambsquarters",[3]; 125 g ai/ha,5
same,"Plant response rating, Lambsquarters",[3]; 250 g ai/ha,30
same,"Plant response rating, Morningglory",[4]; 31 g ai/ha,0
same,"Plant response rating, Morningglory",[4]; 62 g ai/ha,15
same,"Plant response rating, Morningglory",[4]; 125 g ai/ha,35
same,"Plant response rating, Morningglory",[4]; 250 g ai/ha,40
same,"Plant response rating, Nutsedge, Yellow",[5]; 31 g ai/ha,0
same,"Plant response rating, Nutsedge, Yellow",[5]; 62 g ai/ha,0
same,"Plant response rating, Nutsedge, Yellow",[5]; 125 g ai/ha,0
same,"Plant response rating, Nutsedge, Yellow",[5]; 250 g ai/ha,0
same,"Plant response rating, Oilseed Rape",[6]; 31 g ai/ha,20
same,"Plant response rating, Oilseed Rape",[6]; 62 g ai/ha,45
same,"Plant response rating, Oilseed Rape",[6]; 125 g ai/ha,45
same,"Plant response rating, Oilseed Rape",[6]; 250 g ai/ha,55
same,"Plant response rating, Ragweed",[7]; 31 g ai/ha,0
same,"Plant response rating, Ragweed",[7]; 62 g ai/ha,0
same,"Plant response rating, Ragweed",[7]; 125 g ai/ha,40
same,"Plant response rating, Ragweed",[7]; 250 g ai/ha,30
same,"Plant response rating, Ryegrass, Italian",[8]; 31 g ai/ha,0
same,"Plant response rating, Ryegrass, Italian",[8]; 62 g ai/ha,0
same,"Plant response rating, Ryegrass, Italian",[8]; 125 g ai/ha,10
same,"Plant response rating, Ryegrass, Italian",[8]; 250 g ai/ha,10
same,"Plant response rating, Soybean",soybean (Glycine max); 31 g ai/ha,0
same,"Plant response rating, Soybean",soybean (Glycine max); 62 g ai/ha,0
same,"Plant response rating, Soybean",soybean (Glycine max); 125 g ai/ha,5
same,"Plant response rating, Soybean",soybean (Glycine max); 250 g ai/ha,15
